Laboratory results taken from patent US10765674B2, “Prevention of HIV-infection” (Janssen Sciences Ireland Unlimited Company, priority 2005, dated 2020).
Where two headings read alike, the source gives them in different places.

Test: Plasma kinetics of TMC278 in beagle dogs after single intramuscular administration
Format: in vivo
Conditions: single IM 2.5 mg/kg, aqueous 30% DMA/50% PEG400 solution; for half-life / Cmax / Tmax / AUC(0-t): im; for AUC(0-t): read-out: AUC0-312 h; for concentration at 0 h: 0 h (predose); for concentration at 0.5 h: 0.5 h after dose; for concentration at 1 h: 1 h after dose; for concentration at 2 h: 2 h after dose; for concentration at 4 h: 4 h after dose; for concentration at 8 h: 8 h after dose; for concentration at 24 h: 24 h after dose; for concentration at 32 h: 32 h after dose; for concentration at 48 h: 48 h after dose; for concentration at 72 h: 72 h after dose; for concentration at 96 h: 96 h after dose; for concentration at 144 h: 144 h after dose; for concentration at 192 h: 192 h after dose; for concentration at 240 h: 240 h after dose; for concentration at 312 h: 312 h after dose; for concentration at 36 day: day 36; for concentration at 50 day: day 50; for concentration at 64 day: day 64; for concentration at 78 day: day 78; for concentration at 92 day: day 92; for concentration at 106 day: day 106; for concentration at 120 day: day 120; for concentration at 134 day: day 134; for concentration at 148 day: day 148
Procedure: The present study was performed in order to study the plasma kinetics and the absolute bioavailability of TMC278 in beagle dogs after single intramuscular administration (IM) of an aqueous 30% dimethylacetamide (DMA)/50% polyethylene glycol 400 (PEG400) solution of TMC278 at 2.5 mg/kg. The dogs were dosed IM.
Two male beagle dogs (dog No. 16924 and 16854), approximately 3 years old and weighing between 11 and 12 kg at the start of the experimental phase, were used in the present experiment. The dogs were dosed intramuscularly at 0.1 ml/kg body weight by injecting the formulation in the left (dog No. 16924) or right (dog No. 16854) m. biceps femoris.
One day before dose administration, TMC278 was formulated in an aqueous 30% (w/v) DMA/50% (w/v) PEG400 solution at 25 mg/ml. The ingredients of the solution were: TMC278, DMA 30% (w/v), PEG 400 50% (w/v) and pyrogenic free water. The content of TMC278 in the formulation was checked using LC. The concentration of TMC278 in the formulation was 25 mg/ml.
Blood samples (4 ml on EDTA) were taken from a jugular vein from the dogs at 0 (=predose), 0.5, 1, 2, 4, 8, 24, 32, 48, 72, 96, 144, 192, 240 and 312 h after dose administration. After sampling, the blood samples were immediately placed on melting ice and protected from light. Blood samples were centrifuged at approximately 1900×g for 10 minutes at 5° C. to allow plasma separation. Immediately after separation, plasma samples were protected from light, placed on melting ice and stored at ≤−18° C. until analysis. Frozen plasma samples were transferred to the Bioanalytical Department. Since TMC278 was still detectable in the plasma samples at 312 h post-dose, additional blood samples of both dogs were collected on the days 36, 50, 64, 78, 92, 106, 120, 134 and 148. These samples were analogously processed and analysed.
The concentration of TMC278 in dog plasma was determined by a qualified research LC-MS/MS method after solid phase extraction (SPE). Plasma concentrations of TMC278 were determined after proper sample clean up. The samples (0.1 ml aliquots of plasma) were extracted using a solid phase extraction method (Bond Elut Certify solid phase columns, 130 mg, SPE, Varian). The SPE column was conditioned with 3 ml methanol, 3 ml water and 1 ml acetic acid 1 M.
After addition of 3 ml acetic acid to 0.1 ml aliquots of plasma, the samples were extracted on the column followed by washing the column with 1 ml water, 1 ml acetic acid 1 M and 3 ml methanol. The column was eluted with 3 ml methanol/NH4OH 25% (98:2, v/v). The extract was evaporated to dryness and reconstituted in 150 μl of ammonium formate 0.01 M (adjusted to pH 4 with formic acid)/methanol (50/50). 20 μl-aliquots were injected onto a reversed phase LC-column (100×4.6 mm ID, packed with 3 μm Hypersil C18 BDS) with a flow of 800 μl/min. The elution mixture was ammonium formate 0.01 M (adjusted to pH 4 with formic acid)/methanol (40:60, v/v). The flow-rate to the mass spectrometer was about 100 μl/min after splitting. LC-MS/MS analysis was carried out on an API-3000 system (Applied Biosystems), which was coupled to an HPLC-system.
Individual plasma concentration-time profiles were subjected to a non-compartmental pharmacokinetic analysis. Peak plasma concentrations (Cmax) and corresponding peak times (Tmax) were determined. The AUC from time 0 to time t (AUC0-t, where t is the time point associated with the last measurable concentration above the limit of quantification) was calculated by means of the linear/log trapezoidal rule: i.e. linear trapezoidal rule up to Tmax: AUC0-Tmax=Σ[(ti+1−ti). (Ci+Ci+1)/2], and log trapezoidal for the remainder of the curve: AUCTmax-t=Σ[(ti+1−ti). (Ci−Ci+1)/ln(Ci/Ci+1)], Ci and Ci+1 being the plasma concentrations at times ti and ti+1, respectively. […]

[1] = male, beagle, dog, plasma, 2.5 mg/kg, dog No. 16854
[2] = male, beagle, dog, plasma, 2.5 mg/kg, dog No. 16924
[3] = male, beagle, dog, plasma, 2.5 mg/kg, mean (n=2)
[4] = male, beagle, dog, plasma, intramuscular, 2.5 mg/kg, dog No. 16854
[5] = male, beagle, dog, plasma, intramuscular, 2.5 mg/kg, dog No. 16854, read-out: plasma concentration during the wash-out period
[6] = male, beagle, dog, plasma, intramuscular, 2.5 mg/kg, dog No. 16924
[7] = male, beagle, dog, plasma, intramuscular, 2.5 mg/kg, dog No. 16924, read-out: plasma concentration during the wash-out period
[8] = male, beagle, dog, plasma, intramuscular, 2.5 mg/kg, mean (n=2)
[9] = male, beagle, dog, plasma, intramuscular, 2.5 mg/kg, mean (n=2), read-out: plasma concentration during the wash-out period

Compound: Cc1cc(C=CC#N)cc(C)c1Nc1ccnc(Nc2ccc(C#N)cc2)n1 [TMC278, 4-[[4-[[4-(2-cyanoethenyl)-2,6-dimethylphenyl]amino]-2-pyrimidinyl]-amino]benzonitrile]
- plasma levels during the wash-out period (range) (both dogs, days 36 to 148): 1.24 to 4.23 ng/mL
- plasma concentration during the wash-out period (dog No. 16924, day 272): <1.00 ng/mL
- half-life (male, beagle, dog, plasma, 2.5 mg/kg, dog No. 16854, half-life between 8 h and 24 h, read-out: t1/2, 8-24 h (converted)): 8.9 h
- Cmax [1]: 39.9 ng/mL
- Tmax [1]: 8 h
- AUC(0-t) [1]: 2120 ng·h/mL
- half-life (male, beagle, dog, plasma, 2.5 mg/kg, dog No. 16854, read-out: t1/2, 24-72 h (converted)): 75.2 h
- half-life (male, beagle, dog, plasma, 2.5 mg/kg, dog No. 16924, half-life between 1 h and 24 h, read-out: t1/2, 1-24 h (converted)): 15.1 h
- Cmax [2]: 23.8 ng/mL
- Tmax [2]: 1 h
- AUC(0-t) [2]: 1600 ng·h/mL
- half-life (male, beagle, dog, plasma, 2.5 mg/kg, dog No. 16924, read-out: t1/2, 24-72 h (converted)): 51 h
- Cmax [3]: 31.9 ng/mL
- Tmax [3]: 5 h
- AUC(0-t) [3]: 1860 ng·h/mL
- half-life (male, beagle, dog, plasma, 2.5 mg/kg, mean (n=2), read-out: t1/2, 24-72 h (converted)): 63 h
- concentration at 0 h [4]: < 1 ng/mL
- concentration at 0.5 h [4]: 13.5 ng/mL
- concentration at 1 h [4]: 17 ng/mL
- concentration at 2 h [4]: 20.6 ng/mL
- concentration at 4 h [4]: 27.2 ng/mL
- concentration at 8 h [4]: 39.9 ng/mL
- concentration at 24 h [4]: 11.4 ng/mL
- concentration at 32 h [4]: 10.7 ng/mL
- concentration at 48 h [4]: 9.03 ng/mL
- concentration at 72 h [4]: 7.37 ng/mL
- concentration at 96 h [4]: 6.4 ng/mL
- concentration at 144 h [4]: 3.19 ng/mL
- concentration at 192 h [4]: 2.8 ng/mL
- concentration at 240 h [4]: 6.16 ng/mL
- concentration at 312 h [4]: 4.24 ng/mL
- concentration at 36 day [5]: 3.66 ng/mL
- concentration at 50 day [5]: 4.1 ng/mL
- concentration at 64 day [5]: 2.18 ng/mL
- concentration at 78 day [5]: 2.62 ng/mL
- concentration at 92 day [5]: 2.32 ng/mL
- concentration at 106 day [5]: 2.02 ng/mL
- concentration at 120 day [5]: 1.87 ng/mL
- concentration at 134 day [5]: 1.67 ng/mL
- concentration at 148 day [5]: 1.41 ng/mL
- concentration at 0 h [6]: < 1 ng/mL
- concentration at 0.5 h [6]: 21.3 ng/mL
- concentration at 1 h [6]: 23.8 ng/mL
- concentration at 2 h [6]: 20.9 ng/mL
- concentration at 4 h [6]: 17.1 ng/mL
- concentration at 8 h [6]: 15.1 ng/mL
- concentration at 24 h [6]: 7.7 ng/mL
- concentration at 32 h [6]: 6.65 ng/mL
- concentration at 48 h [6]: 6.03 ng/mL
- concentration at 72 h [6]: 3.9 ng/mL
- concentration at 96 h [6]: 3.97 ng/mL
- concentration at 144 h [6]: 3.65 ng/mL
- concentration at 192 h [6]: 3.57 ng/mL
- concentration at 240 h [6]: 4.38 ng/mL
- concentration at 312 h [6]: 5.97 ng/mL
- concentration at 36 day [7]: 3.05 ng/mL
- concentration at 50 day [7]: 2.12 ng/mL
- concentration at 64 day [7]: 2.42 ng/mL
- concentration at 78 day [7]: 1.69 ng/mL
- concentration at 92 day [7]: 2.51 ng/mL
- concentration at 106 day [7]: 1.75 ng/mL
- concentration at 120 day [7]: 4.23 ng/mL
- concentration at 134 day [7]: 1.61 ng/mL
- concentration at 148 day [7]: 1.24 ng/mL
- concentration at 272 day (male, beagle, dog, plasma, intramuscular, 2.5 mg/kg, dog No. 16924, day 272, read-out: plasma concentration during the wash-out period): < 1 ng/mL
- concentration at 0 h [8]: < 1 ng/mL
- concentration at 0.5 h [8]: 17.4 ng/mL
- concentration at 1 h [8]: 20.4 ng/mL
- concentration at 2 h [8]: 20.8 ng/mL
- concentration at 4 h [8]: 22.2 ng/mL
- concentration at 8 h [8]: 27.5 ng/mL
- concentration at 24 h [8]: 9.55 ng/mL
- concentration at 32 h [8]: 8.68 ng/mL
- concentration at 48 h [8]: 7.53 ng/mL
- concentration at 72 h [8]: 5.64 ng/mL
- concentration at 96 h [8]: 5.19 ng/mL
- concentration at 144 h [8]: 3.42 ng/mL
- concentration at 192 h [8]: 3.19 ng/mL
- concentration at 240 h [8]: 5.27 ng/mL
- concentration at 312 h [8]: 5.11 ng/mL
- concentration at 36 day [9]: 3.36 ng/mL
- concentration at 50 day [9]: 3.11 ng/mL
- concentration at 64 day [9]: 2.3 ng/mL
- concentration at 78 day [9]: 2.16 ng/mL
- concentration at 92 day [9]: 2.42 ng/mL
- concentration at 106 day [9]: 1.89 ng/mL
- concentration at 120 day [9]: 3.05 ng/mL
- concentration at 134 day [9]: 1.64 ng/mL
- concentration at 148 day [9]: 1.33 ng/mL
- t1/2, 24-72 h (mean (n=2)): 63.1 h
